Where a name gives a salt, the structure may show the parent alone.
Assays:
[1] = test system: iFA phenotype of mesenchymal-like cells on 13 kPa hydrogels; experiment: iFA-prevention phenotypic high-content drug screen (iFA model); type: cell-based, human; settings: for Efficacy in secondary screen: assay repeated with compound sourced commercially or from additional library materials; for Dose response: 20 point dose course, picomolar to millimolar; for Prevention/rescue of the iFA phenotype: 3.75 μgm/ml IFNγ (FIG. 25C)
Experimental: Mesenchymal-like cells were cultured on 13 kPa functionalized polyacrylamide gels that were prepared as follows. 187.5 μl of 40% acrylamide, 60 μl of 2% bis-acrylamide and 8.55 μl of sodium bisulfate in a final volume of 990 μl of water was incubated for 20 min at room temperature to degas the mixture. To this mixture, 0.10% ammonium persulfate and 0.15% TEMED were added, mixed and 100 μl of the solution was added onto a 0.4% 3-(Trimethoxysily) propyl methacrylate pH 3.5 treated coverslip. A 2% dimethyl dichlorosilane in chloroform treated round glass coverslip was then inverted on the acrylamide solution and allowed to polymerize for 15 min between the two surfaces. The top coverslip was gently removed, and the bottom coverslips with the hydrogel were transferred to appropriate multi-well low adherent tissue culture plate containing coupling buffer (0.1 M sodium phosphate dibasic, 0.1 M sodium phosphate monobasic) pH 8. To functionalize the hydrogel, 1 part of 0.1 M p-benzoquinone in dioxane was added to the hydrogels containing 4 parts of coupling buffer and incubated at 37° C. for 30 min. The gel was then successively washed with 20% dioxane in water, water, 0.1 M sodium acetate buffer at pH 4.0 containing 1.0 M sodium chloride, 0.1 M sodium bicarbonate solution at pH 8.5 containing 1.0 M sodium chloride, and finally with coupling buffer at pH 7.5. The hydrogels were then coated with 0.1% gelatin for 2 hrs prior to seeding the cells. Cells were seeded at a density of 3000 cells/cm^2.
A phenotypic high-content drug screen was prepared to identify compounds capable of preventing the iFA phenotype in a 96-well format. An ImageXpress XL high-throughput imager with a 4× Plan objective (N/A 0.20) was used with image based focusing. Briefly, 100 μL media were plated in each well of 96 well plate using a Thermo Multidrop non-contact dispenser. Using a custom V&P pin tool mounted to a Beckman FX liquid handler, 1.5 μL compounds or DMSO were added. Mesenchymal-like cells were added as a suspension using the Multidrop at a density of 3.5×10^3 cells/well. The resulting compound concentration was 10 μM. Cells were imaged after 7 days of incubation at 37° C. and 5% CO2: A final of 0.5 μg/ml of Calcein AM and/or 10 μg/ml propidium iodide (viability dye) with 1 μg/ml Hoechst 33342 were added and imaged using the ImageXpress XL system. Data mining was performed using a custom module consisting of the following steps: The image background was removed using a top-hat filter with 25 μm round shape polisher. Next, cellular aggregates and individual spindle-shaped cells were identified. Aggregates of cells were defined by size with a cut-off of 60 to 200 micron and an intensity of at least 200 gray scales over background. Individual spindle-shaped cells were identified as smaller objects with cut-offs from 15 to 100 micron and a lower intensity of at least 70 gray scales over background.
Additional morphometric measurements were made by counting labeled cell nuclei and measuring total area covered with cells per well. The data resulting from the screen were batch exported through MetaXpress and uploaded into a Collaborative Drug Discovery (CDD) cloud based database (Ekins and Bunin, 2013, Methods in molecular biology 993, 139-154.). Hits were selected on a cut-off of more than 3 standard deviations from mean using data normalized to reference wells in each plate. IC50 values (the half maximal inhibitory concentration) from confirmation experiments were calculated from dose-response signal curves using the Prism software (GraphPad Software).
Signal-to-background (S/B) ratio, standard variation and variation coefficients were calculated as the signal of DMSO treated wells divided by the signal of the hit compound (AA5) treated wells. […]

iFA model = experiment: Fibrotic marker, cytokine and repair modulator expression in the iFA model (qPCR, immunoblotting, luminex, immunofluorescence); type: cell-based, human; settings: 3.75 μgm/ml IFNγ vs DMSO-treated controls
Experimental: The Milliplex human cytokine/chemokine Panel IV, human TIMP Panel 2, and human TGFβ 1,2,3 magnetic bead kits (EMD Millipore) were used per manufacturer's instructions. Prior to plating, all samples tested for human TGFβ only were activated and neutralized with 1.0 N HCl and 1.0 N NaOH, respectively. Briefly, 25 μl of undiluted or treated cell culture supernatant samples were mixed with 25 μl of magnetic beads and allowed to incubate overnight at 4° C. while shaking. After washing the plates with wash buffer in a Biotek ELx405 washer, 25 μl of biotinylated detection antibody was added and incubated for 1 hour at room temperature while shaking. 25 μl of streptavidin-phycoerythrin conjugate was then added to the reaction mixture and incubated for another 30 minutes at room temperature while shaking. Following additional washes, beads were resuspended in sheath fluid, and fluorescence was quantified using a Luminex 200 instrument. Similarly, a custom magnetic Luminex assay kit of select analytes (R&D Systems) was used per manufacturer's instructions. Cell culture supernatants were prepared with a 2-fold dilution. 50 μl of diluted sample were added to 50 μl of provided micro-particle cocktail and incubated for 2 hours at room temperature while shaking. After washing with wash buffer, 50 μl of biotin antibody cocktail was added and incubated for 1 hour at room temperature while shaking. Following additional washes, 50 μl of diluted Streptavidin-PE was then added for incubation for 30 minutes at room temperature while shaking. The plate was then washed again and the micro-particles resuspended in 100 μl wash buffer. After an additional 2-minute incubation while shaking, the data was acquired using a Luminex 200 instrument.
In-vitro cultures of PF and cells in the iFA model were washed once with PBS and total RNA from the samples were extracted using the RNeasy Mini Kit (Qiagen) according to the manufacturer's instructions. For the lung slice cultures (LSC), tissues were snap-frozen after treatment and stored at −80° C. until RNA isolation. Lung slices were homogenized using a handheld homogenizer and passing the homogenate through a Qiashredder (Qiagen). Total RNA from the LSC and cells from the disease model were extracted using the RNeasy Mini Kit (Qiagen) according to the manufacturer's instructions. The RNA concentrations were measured on a NanoDrop ND-1000 spectrophotometer. Single-stranded cDNA was synthesized from 200 ng of total RNA using Superscript IV and random hexamer primers (Invitrogen) in a volume of 20 μl. cDNA was then used for qRT-PCR analysis. PCR reactions were performed using Taqman Gene Expression Assay mix (Applied Biosystems) according to the manufacturer's instructions.
qRT-PCR reactions were performed using the StepOnePlus (Applied Biosystems). Relative gene expression was calculated using the 2^−ΔΔCt method, with 18S Cat. #4331182 (Invitrogen) as housekeeping gene. For the RT^2qPCR arrays, cDNA from DMSO and AA5 treated iFA and was added to the RT^2 qPCR iTaq Universal SYBR green Master Mix (Biorad). 20 μl of the experimental cocktail was added to each well of the Fibrosis PCR (Qiagen). Real-Time PCR was performed on the StepOnePlus qPCR system (Applied Biosystems) using SYBR green detection according to the manufacturer's recommendations. All data from the PCR was collected and analyzed by SA Bioscience's PCR Array Data Analysis Web Portal.
Cells grown on coverslips were fixed in 4% paraformaldehyde (PFA) for 10 min at room temperature and washed three times with TBS buffer supplemented with 0.1% Tween 20 (TBST). Lung samples were fixed overnight in 4% PFA at room temperature, washed 3 times in PBS, dehydrated and then infiltrated and embedded with wax. Five-micron sections were collected on glass slides, deparaffinized and rehydrated. Heat-induced epitope retrieval was performed using 1 mM EDTA in a microwave. […]

[2] = library compound plated with cells on day 1 on hydrogel, phenotype on day 7, 10 μM

Molecule: CCCNC(=O)NS(=O)(=O)c1ccc(Cl)cc1 [Chlorpropamide]
- Efficacy in secondary screen [1]: +
- Efficacy in primary screen [1, 2]: +++ (+++ = strong effect)

Molecule: CN(C)c1ccc(C(=C2C=CC(=[N+](C)C)C=C2)c2ccc(N(C)C)cc2)cc1.[Cl-]
- Efficacy in secondary screen [1]: ++ (++ = moderate effect)
- Efficacy in primary screen [1, 2]: +++ (+++ = strong effect)

Molecule: CCCCC/C=C\C/C=C\C/C=C\C/C=C\CCCC(=O)NCc1ccc(O)c(OC)c1 [Arvanil]
- Efficacy in secondary screen [1]: +
- Efficacy in primary screen [1, 2]: +++ (+++ = strong effect)

Molecule: COc1ccc2c(c1)c(CC(=O)O)c(C)n2Cc1ccc(Cl)cc1 [1-(4-Chlorobenzyl)-5-methoxy-2-methylindole-3-acetic acid]
- Efficacy in secondary screen [1]: +
- Efficacy in primary screen [1, 2]: +++ (+++ = strong effect)

Molecule: Cc1cc(C2CCCCC2)n(O)c(=O)c1.NCCO [Ciclopirox ethanolamine., Ciclopirox ethanolamine]
- Efficacy in secondary screen [1]: ++ (++ = moderate effect)
- Efficacy in primary screen [1, 2]: +++ (+++ = strong effect)

Molecule: NC(CP(=O)(O)O)C(=O)O (racemic) [±)-2-Amino-3-phosphonopropionic acid]
- Efficacy in secondary screen [1]: +
- Efficacy in primary screen [1, 2]: +++ (+++ = strong effect)

Molecule: CN1CCN(c2cccc(Nc3nc4c(-c5ccc(S(C)(=O)=O)cc5)cccn4n3)c2)CC1 [CEP-33779 JAK2 Inhibitor]
- Efficacy in secondary screen [1]: ++ (++ = moderate effect)
- Efficacy in primary screen [1, 2]: +++ (+++ = strong effect)

Molecule: CC(C)(C=O)Cc1cc(C(C)(C)C)c(O)c(C(C)(C)C)c1 [CGP-13501]
- Efficacy in secondary screen [1]: +
- Efficacy in primary screen [1, 2]: +++ (+++ = strong effect)

Molecule: CC(C)(CO)Cc1cc(C(C)(C)C)c(O)c(C(C)(C)C)c1 [CGP-7930]
- Efficacy in secondary screen [1]: +
- Efficacy in primary screen [1, 2]: +++ (+++ = strong effect)

Molecule: S=C(Nc1ccccc1)Nc1nccs1 [1-Pheny1-3-(2-thiazolyl)-2-thiourea]
- Efficacy in secondary screen [1]: +
- Efficacy in primary screen [1, 2]: +++ (+++ = strong effect)

Molecule: N#CC(C#N)=C(N)/C(C#N)=C/c1cc(O)c(O)c(O)c1 [Tyrphostin 51]
- Efficacy in secondary screen [1]: +
- Efficacy in primary screen [1, 2]: +++ (+++ = strong effect)

Molecule: COC(=O)/C=C/c1cc(O)ccc1O
- Dose response [1]: ++ (++ = moderate effect)
- Efficacy in secondary screen [1]: ++ (++ = moderate effect)
- Efficacy in primary screen [1, 2]: +++ (+++ = strong effect)

Molecule: C[C@@H](N)[C@H]1CC[C@H](C(=O)Nc2ccncc2)CC1 [Y-27632 Rock Inhibitor]
- Efficacy in secondary screen [1]: ++ (++ = moderate effect)
- Efficacy in primary screen [1, 2]: +++ (+++ = strong effect)

Molecule: CN1CCC2(C)c3cc(O)ccc3N(C)C12.O=C(O)/C=C/C(=O)O (single isomer, unassigned; (-)) [(−)Eseroline fumarate salt., (−)Eseroline fumarate salt]
- Efficacy in secondary screen [1]: ++ (++ = moderate effect)
- Efficacy in primary screen [1, 2]: +++ (+++ = strong effect)

Molecule: CC(NC(C)(C)C)C(=O)c1cccc(Cl)c1 (stereo not drawn) [Bupropion hydrochloride]
- Efficacy in secondary screen [1]: +
- Efficacy in primary screen [1, 2]: +++ (+++ = strong effect)

Molecule: NCCCC(=O)O [γ-Aminobutyric acid]
- Efficacy in secondary screen [1]: +
- Efficacy in primary screen [1, 2]: +++ (+++ = strong effect)

Molecule: CSCC[C@@H](N)C(=O)O [D-methionine]
- Efficacy in primary screen ([1]; 168 h, 10 µM): +++ (+++ = strong effect)
- Efficacy in secondary screen [1]: ++ (++ = moderate effect)

Molecule: O=P1(N(CCCl)CCCl)NCCCO1 (stereo not drawn) [Cyclophosphamide]
- Efficacy in secondary screen [1]: +
- Efficacy in primary screen [1, 2]: +++ (+++ = strong effect)

Molecule: COC(=O)Nc1nc2ccc(Sc3ccccc3)cc2[nH]1 [Fenbendazole., Fenbendazole]
- Efficacy in secondary screen [1]: ++ (++ = moderate effect)
- Efficacy in primary screen [1, 2]: +++ (+++ = strong effect)

B1: Recombinant Human IFN-gamma Protein: Recombinant Human IFN-gamma Protein; IFNs are known anti-fibrotic cytokines (protein, UniProt P01579 24-161, looked up)
Interferon gamma: QDPYVKEAENLKKYFNAGHSDVADNGTLFLGILKNWKEESDRKIMQSQIVSFYFKLFKNFKDDQSIQKSVETIKEDMNVKFFNSNKKKRDDFEKLTNYSVTDLNVQRKAIHELIQVMAELSPAAKTGKRKRSQMLFRG
- Prevention/rescue of the iFA phenotype [1]: Partial prevention of the iFA phenotype
- Prevention/rescue of the iFA phenotype ([1]; listed as recombinant IFNγ): partially rescued the iFA phenotype
- Dose response [1]: +
- Efficacy in secondary screen [1]: ++ (++ = moderate effect)
- Efficacy in primary screen [1, 2]: +++ (+++ = strong effect)
- α-SMA and Collagen I (IF) (iFA model): reduced

— patent US20200352918A1, “COMPOUNDS AND METHODS FOR TREATING OR PREVENTING FIBROSIS” (priority 2019, published 2020)
